Assay results as given in patent US10611751B2, “Dopamine D1 receptor positive allosteric modulators” (Eli Lilly and Company, priority 2018, dated 2020).
“Also recorded” adds a separate entry of the source. Where two headings read alike, the source gives them in different places. Marks after values point to notes of the source that are not given here.

What was measured:
[1] = Plasma and Brain Levels after oral dosing; format: in vivo; conditions: fed
Procedure: Example 1 is orally dosed to male mouse from 1 mg/kg to 30 mg/kg in fed condition, and the plasma and brain concentration are determined 1.5 hr post-dose. The fraction unbound of the compound is determined in vitro as described previously (Zamek-Gliszczynski M J, Ruterbories K J, Ajamie R T, Wickremsinhe E R, Pothuri L, Rao M V, Basavanakatti V N, Pinjari J, Ramanathan V K, Chaudhary A K (2011) Validation of 96-well equilibrium dialysis with non-radiolabeled drug for definitive measurement of protein binding and application to clinical development of highly-bound drugs. J Pharm Sci 100: 2498-2507). The ratio (Kpuu) of unbound brain concentration (Cu,brain) vs. unbound plasma concertation (Cu,plasma) is determined as described previously (Raub T J, Wishart G N, Kulanthaivel P, Staton B A, Ajamie R T, Sawada G A, Gelbert L M, Shannon H E, Sanchez-Martinez C, De Dios A (2015) Brain Exposure of Two Selective Dual CDK4 and CDK6 Inhibitors and the Antitumor Activity of CDK4 and CDK6 Inhibition in Combination with Temozolomide in an Intracranial Glioblastoma Xenograft. Drug Metab Dispos. 43:1360-71). The data presented below for Example 1 are averages from 3 animals at each dose. “Con.” refers to concentration. […]

[2] = Fraction unbound in plasma and brain, determined in vitro (equilibrium dialysis); format: in vitro ADME
Procedure: Example 1 is orally dosed to male mouse from 1 mg/kg to 30 mg/kg in fed condition, and the plasma and brain concentration are determined 1.5 hr post-dose. The fraction unbound of the compound is determined in vitro as described previously (Zamek-Gliszczynski M J, Ruterbories K J, Ajamie R T, Wickremsinhe E R, Pothuri L, Rao M V, Basavanakatti V N, Pinjari J, Ramanathan V K, Chaudhary A K (2011) Validation of 96-well equilibrium dialysis with non-radiolabeled drug for definitive measurement of protein binding and application to clinical development of highly-bound drugs. J Pharm Sci 100: 2498-2507). The ratio (Kpuu) of unbound brain concentration (Cu,brain) vs. unbound plasma concertation (Cu,plasma) is determined as described previously (Raub T J, Wishart G N, Kulanthaivel P, Staton B A, Ajamie R T, Sawada G A, Gelbert L M, Shannon H E, Sanchez-Martinez C, De Dios A (2015) Brain Exposure of Two Selective Dual CDK4 and CDK6 Inhibitors and the Antitumor Activity of CDK4 and CDK6 Inhibition in Combination with Temozolomide in an Intracranial Glioblastoma Xenograft. Drug Metab Dispos. 43:1360-71). The data presented below for Example 1 are averages from 3 animals at each dose. “Con.” refers to concentration.
Example 8 was orally dosed to male mouse from 3 mg/kg to 60 mg/kg in fed condition, and the plasma and brain concentration was determined 1 hr post-dose. The fraction unbound of the compound was determined in vitro as described previously (Zamek-Gliszczynski M J, et al., Validation of 96-well equilibrium dialysis with non-radiolabeled drug for definitive measurement of protein binding and application to clinical development of highly-bound drugs, J. Pharm. Sci. (2011) 100: 2498-2507). The ratio (Kpuu) of unbound brain concentration (Cu,brain) vs. unbound plasma concertation (Cu,plasma) was determined as described previously (Raub T J, et al., Brain Exposure of Two Selective Dual CDK4 and CDK6 Inhibitors and the Antitumor Activity of CDK4 and CDK6 Inhibition in Combination with Temozolomide in an Intracranial Glioblastoma Xenograft. Drug Metab. Dispos. (2015) 43:1360-71). The data presented below for Example 8 are averages from 3 animals at each dose.

[3] = system: human D1 receptor knock-in mice; test: Basal (Habituated) Locomotor Activity; format: in vivo, mouse; conditions: for Basal Locomotor Activity (Total Ambulations for 60 min), mean: male human D1 knock-in mice, N = 8/group; for Effect on basal movement / locomotor activation (in words): oral dose response, habituated human D1 knock-in mice
Procedure: Locomotor activity is measured using an automated system to track movement in mice. Monitoring of mouse locomotor activity behaviors take place in transparent plastic shoebox cages having dimensions of 45×25×20 cm, with a 1 cm depth of wood chips for absorbent bedding, and covered with a ventilated filtered plastic cage top. Cages were placed in a rectangular frame containing a grid of 12 photocell beams in an 8×4 configuration (Kinder Scientific, Poway, Calif.) that is positioned 2.5 centimeters from the floor of the cage for the detection of body movements (ambulations) and recorded by computer.
Male human D1 receptor knock-in mice are placed in chambers and allowed to habituate to the chambers for 60 min. During the habituation period, the mice show decreasing locomotion over time, as expected. Following administration of a compound of the invention, animal movement is found to increase in a dose-dependent fashion.
The mice are randomly assigned to treatment groups. In the dose response study, each mouse is placed individually into one of the locomotor activity boxes for a 60 min. habituation period. The mice are then dosed orally using test compound in a 20% hydroxypropyl-betacyclodextrin vehicle and using a 10 mL/kg dose volume. After dosing, the mice are placed back into the LMA boxes and the total number of ambulations is recorded per 10 min interval for each mouse over a 60 min measurement period. Statistical analysis is carried out using one-way ANOVA followed by post-hoc analysis using Dunnett's Comparison test.

[4] = 3 mg/kg oral, male mouse, 1.5 hr
[5] = 3 mg/kg oral, male mouse, 1.5 hr, read-out: Brain con.
[6] = 3 mg/kg oral, male mouse, 1.5 hr, read-out: Cu, brain
[7] = 3 mg/kg oral, male mouse, 1.5 hr, read-out: Cu, plasma
[8] = 10 mg/kg oral, male mouse, 1.5 hr
[9] = 10 mg/kg oral, male mouse, 1.5 hr, read-out: Brain con.
[10] = 10 mg/kg oral, male mouse, 1.5 hr, read-out: Cu, brain
[11] = 10 mg/kg oral, male mouse, 1.5 hr, read-out: Cu, plasma
[12] = 30 mg/kg oral, male mouse, 1.5 hr
[13] = 30 mg/kg oral, male mouse, 1.5 hr, read-out: Brain con.
[14] = 30 mg/kg oral, male mouse, 1.5 hr, read-out: Cu, brain
[15] = 30 mg/kg oral, male mouse, 1.5 hr, read-out: Cu, plasma
[16] = brain/plasma, 3 mg/kg oral, male mouse, 1.5 hr, read-out: Kpuu (Cu,brain vs. Cu,plasma)
[17] = brain/plasma, 10 mg/kg oral, male mouse, 1.5 hr, read-out: Kpuu (Cu,brain vs. Cu,plasma)
[18] = brain/plasma, 30 mg/kg oral, male mouse, 1.5 hr, read-out: Kpuu (Cu,brain vs. Cu,plasma)
[19] = fraction unbound in brain, read-out: fu, brain
[20] = fraction unbound in plasma, read-out: fu, plasma

SMILES | Plasma con. [1, 4] [nM] | concentration at 1 h [1, 5] [µM] | concentration at 1 h [1, 6] [µM] | concentration at 1 h [1, 7] [µM] | Plasma con. [1, 8] [nM] | concentration at 1 h [1, 9] [µM] | concentration at 1 h [1, 10] [µM] | concentration at 1 h [1, 11] [µM] | Plasma con. [1, 12] [nM] | concentration at 1 h [1, 13] [µM] | concentration at 1 h [1, 14] [µM] | concentration at 1 h [1, 15] [µM] | Kp uu [1, 16] | Kp uu [1, 17] | Kp uu [1, 18] | fraction unbound [2, 19] | fraction unbound [2, 20] | Basal Locomotor Activity (Total Ambulations for 60 min), mean ([3]; 3.0 mg/kg PO) | Basal Locomotor Activity (Total Ambulations for 60 min), mean ([3]; 10 mg/kg PO) | Basal Locomotor Activity (Total Ambulations for 60 min), mean ([3]; 30 mg/kg PO) | further results
C[C@H]1c2cccc(-c3cn[nH]c3)c2C[C@H](CO)N1C(=O)Cc1c(Cl)cccc1Cl [Example 8, 2-(2,6-dichlorophenyl)-1-((1S,3R)-3-(hydroxymethyl)-1-methyl-5-(1H-pyrazol-4-yl)-3,4-dihydroisoquinolin-2(1H)-yl)ethan-1-one] | 87.4 | 0.0663 | 0.00066 | 0.00271 | 901 | 0.267 | 0.00267 | 0.0279 | 10321 | 2.391 | 0.0239 | 0.32 | 0.24 | 0.1 | 0.07 | 0.01 | 0.031 | 335 | 753 | 3746** | Kp uu at 1 h ([1]; brain/plasma, 20 mg/kg oral, male mouse, 1.5 hr, read-out: Kpuu (Cu,brain vs. Cu,plasma)): 0.1; Kp uu at 1 h ([1]; brain/plasma, 60 mg/kg oral, male mouse, 1.5 hr, read-out: Kpuu (Cu,brain vs. Cu,plasma)): 0.08; concentration at 1 h ([1]; male, mouse, brain, oral, 20 mg/kg, 20 mg/kg oral, 1.5 hr, read-out: Brain con.): 0.721 µM; concentration at 1 h ([1]; male, mouse, brain, oral, 20 mg/kg, 20 mg/kg oral, 1.5 hr, read-out: Cu, brain): 0.00721 µM; concentration at 1 h ([1]; male, mouse, brain, oral, 60 mg/kg, 60 mg/kg oral, 1.5 hr, read-out: Brain con.): 5 µM; concentration at 1 h ([1]; male, mouse, brain, oral, 60 mg/kg, 60 mg/kg oral, 1.5 hr, read-out: Cu, brain): 0.05 µM; concentration at 1 h ([1]; male, mouse, plasma, oral, 20 mg/kg, 20 mg/kg oral, 1.5 hr, read-out: Cu, plasma): 0.0757 µM; concentration at 1 h ([1]; male, mouse, plasma, oral, 20 mg/kg, 20 mg/kg oral, 1.5 hr, read-out: Plasma con.): 2.44 µM; concentration at 1 h ([1]; male, mouse, plasma, oral, 60 mg/kg, 60 mg/kg oral, 1.5 hr, read-out: Cu, plasma): 0.622 µM; concentration at 1 h ([1]; male, mouse, plasma, oral, 60 mg/kg, 60 mg/kg oral, 1.5 hr, read-out: Plasma con.): 20.1 µM; Basal Locomotor Activity (Total Ambulations for 60 min), mean ([3]; 20 mg/kg PO): 3629*; Basal Locomotor Activity (Total Ambulations for 60 min), mean ([3]; 60 mg/kg PO): 4080 ***; Effect on basal movement / locomotor activation (in words) [3]: increase basal movement in a dose dependent manner
C[C@H]1c2cccc(-c3cnn(C)c3)c2C[C@H](CO)N1C(=O)Cc1c(Cl)cccc1Cl [Example 1, 2-(2,6-dichlorophenyl)-1-((1S,3R)-3-(hydroxymethyl)-1-methyl-5-(1-methyl-1H-pyrazol-4-yl)-3,4-dihydroisoquinolin-2(1H)-yl)ethan-1-one] | 86.6 | 0.06 | 0.0015 | 0.00234 | 120 | 0.0576 | 0.00144 | 0.00323 | 1660 | 0.794 | 0.0199 | 0.0449 | 1.06 | 0.44 | 0.65 | 0.025 | 0.027 | 490 | 2426*** | 3568**** | Cu, brain ([1]; 1 mg/kg oral, male mouse, 1.5 hr): BQL; Brain con. ([1]; 1 mg/kg oral, male mouse, 1.5 hr, BQL = below 1 ng/mg tissue): BQL; Kp uu at 1.5 h ([1]; brain/plasma, 6 mg/kg oral, male mouse, read-out: Kpuu (Cu,brain vs. Cu,plasma)): 0.65; concentration at 1.5 h ([1]; male, mouse, brain, oral, 6 mg/kg, 6 mg/kg oral, read-out: Brain con.): 0.129 µM; concentration at 1.5 h ([1]; male, mouse, brain, oral, 6 mg/kg, 6 mg/kg oral, read-out: Cu, brain): 0.00322 µM; concentration at 1.5 h ([1]; male, mouse, plasma, oral, 1 mg/kg, 1 mg/kg oral, read-out: Cu, plasma): 0.000182 µM; concentration at 1.5 h ([1]; male, mouse, plasma, oral, 1 mg/kg, 1 mg/kg oral, read-out: Plasma con.): 0.00674 µM; concentration at 1.5 h ([1]; male, mouse, plasma, oral, 6 mg/kg, 6 mg/kg oral, read-out: Cu, plasma): 0.00467 µM; concentration at 1.5 h ([1]; male, mouse, plasma, oral, 6 mg/kg, 6 mg/kg oral, read-out: Plasma con.): 0.173 µM; Basal Locomotor Activity (Total Ambulations for 60 min), mean ([3]; 1.0 mg/kg PO): 410; Basal Locomotor Activity (Total Ambulations for 60 min), mean ([3]; 6.0 mg/kg PO): 1517*; Effect on basal movement / locomotor activation (in words) [3]: increase basal movement in a dose dependent manner; also recorded: significant in vivo efficacy when orally administered at 6, 10, and 30 mg/kg PO
